Measurements taken from patent US20090215669A1, “COMPOSITIONS AND METHODS FOR TREATMENT OF DIABETES” (DIA-B TECH LIMITED, priority 2005, published 2009).
Converted amounts (≈) assume the structure as drawn. Where two headings read alike, the source gives them in different places. Marks after values point to notes of the source that are not given here. Peptide text beside a SMILES is read from it.

Columns and labels:
insulin multimer = biological target: T1, insulin multimer (Bos taurus, UniProt P01317); experiment: Gel filtration chromatography of insulin mixed with ISF402; format: biochemical
T1 construct: mixing insulin with ISF402 and separating molecular complexes by gel filtration chromatography
Description: The effect of ISF402 on the multimerisation of insulin was examined in vitro by mixing insulin with ISF402 and separating molecular complexes by gel filtration chromatography, which separates on the basis of size (FIG. 7).

female Zucker fa/fa rats [1] = experiment: Intravenous injection of female Zucker fa/fa rats: blood glucose, serum insulin, C-peptide, triglyceride; format: in vivo, rat; conditions: for Change in Serum Triglyceride levels compared to the 0 time point: ISF402 alone 4.5 mg/kg, insulin, insulin + ISF402 1.5 mg/kg, mean ± SEM (n = 5); for maximum reduction in blood glucose: 45 minutes after administration
female Zucker fa/fa rats [2] = experiment: Oral ISF402 followed by intraperitoneal insulin tolerance test (IPITT) in female Zucker fa/fa rats; format: in vivo, rat
Procedure: Female Zucker fa/fa rats were purchased from Monash Animal Services (Monash University, Clayton, Australia). Rats were housed in the Biochemistry and Molecular Biology Animal House (Monash University, Victoria, Australia) and allowed to acclimatize for 7 days in an environmentally controlled room at 22° C. Rats were fed normal chow and water ad libitum. All experiments were performed according to Monash University Animal Care and Ethics Committee guidelines and approved by the Monash University Animal ethics committee. Rats of 16-18 weeks of age were fasted overnight with free access to water then anaesthetised with pentobarbitone (Nembutal, Phone Merieux, QLD, Australia) administered intraperitoneally (IP) at 35 mg/kg body weight. Blood glucose was monitored using Medisense glucometers (Abbott Laboratories, Abbott Park, Ill.) for one hour prior to administration of test substances. ISF402 was administered at 3 mg/kg by IP with 2 U/kg of bovine insulin (n=6) and controls were injected IP with insulin alone (n=8). Two experiments were performed where ISF402 was given orally. In the first experiment, controls were given saline orally by gavage (n=5) and the test group were given ISF402 orally at 15 mg/kg (n=5). After 15 minutes, insulin (2 U/kg) was injected IP. The procedure was repeated three days later with the control rats once again given saline and the treated rats given 30 mg/kg ISF402. A second experiment was performed on a separate group of rats where controls were given saline orally as before (n=5) and treated rats were given ISF402 orally at 30 mg/kg (n=5), followed 15 minutes later by IP injection of 2 U/kg insulin. For both experiments, after administration of peptide blood was collected from the tail vein and glucose measured immediately. Serum samples were also collected for later measurement of C-peptide and insulin using Linco Rat C-peptide and Insulin RIA kits according to the manufacturer's instructions (Linco Research Inc, St Charles, Mo.).

[3] = Solubility of ISF402 at various pH and temperatures; format: physicochemical; conditions: for solubility at 24 h: 25 mM ammonium bicarbonate buffer
Procedure: Solid ISF402 was added to 50 μL aliquots of 25 mM ammonium bicarbonate buffer until no more solid dissolved. The total weight of the peptide added to each tube was noted and the pH of each solution was adjusted to approximately pH 8 by the addition of 1 M NaOH. Samples were incubated with constant shaking at either room temperature (23-25° C.) or 37° C. for 24 hours then centrifuged at 16000×g for 15 minutes. 2 μL aliquots of each supernatant were diluted with milliQ-H2O to an estimated concentration of 1 mg/mL. Samples were stored at −20° C. for later analysis by HPLC using UV detection (214 nm) to determine the exact concentration of ISF402. The pH of the remaining supernatant was measured. The pH was lowered by the addition of 2 μL of 5M HCl and tube contents were mixed and incubated under the two temperature conditions. The cycle of pH lowering, incubation and sampling was repeated until a pH of between 2 and 3 was achieved.

[4] = test system: C2C12 mouse myotube cells; experiment: Microphysiometry (extracellular acidification rate) in C2C12 cells; format: cell-based
Procedure: C2C12 mouse myotube cells were seeded onto supports and differentiated. The cells were then placed in a Cytosensor (Molecular Devices) in non-buffered pH sensitive RPMI 1640 media. Once the cells were equilibrated at 37° C. with RPMI 1640 media (zero control), ISF402, insulin or ZnCl2 at increasing concentrations were added for a duration of 20 minutes, for each treatment. The Cytosensor measured the changed in pH as a response of cells to the treatment.
The activity of the combination of insulin and ISF402 in insulin sensitisation was explored in C2C12 muscle cells using microphysiometry, a technique that measures extracellular acidification as an indicator of cell metabolism. An ISF402 concentration of 0.1 μM was used to test for sensitisation of insulin responsiveness as this concentration produces a sub-maximal (˜20%) response in C2C12 cells. In the presence of 0.1 μM ISF402, the cellular response to insulin was increased as shown by increasing extracellular acidification rate (ECAR) with increasing concentrations of insulin, particularly at low insulin concentrations (FIG. 3).

male Zucker fa/fa rats = experiment: Intravenous injection of male Zucker fa/fa rats: blood glucose, serum insulin, C-peptide; format: in vivo, rat; conditions: 1 U/kg of bovine insulin iv
Procedure: The Monash University Animal Ethics Committee approved all procedures performed on experimental animals. Zucker rats were purchased from the Monash University Central Animal Facility. Insulin and ISF401 were injected through the femoral vein while the rat was under anaesthesia (Pentobarbitone) and rats were humanely killed while still unconscious at the end of the procedure. The insulin concentration used for all in vivo experiments was 1 unit per kg of body weight. Blood was collected from the tail vein and glucose concentrations were measured using a Medisense glucometer. Insulin and C-peptide concentrations were measured in serum samples using a Linco Rat Insulin RIA kit according to the manufacturers instructions. Group sizes were between 5 and 8 rats per treatment.
To investigate sex differences in the insulin sensitizing effect of ISF402, age-matched male Zucker fa/fa rats were injected intravenously with ISF402 (1.5 mg/kg) and insulin as described above for female rats. […] In comparison, co-injection of ISF402 with the insulin led to a decrease in blood glucose 20 minutes after injection which remained low for a further 25 minutes (FIG. 13A). The greatest reduction in blood glucose was 0.98±0.31 mmol/L and was achieved 30 minutes after injection. […]

female Zucker fa/fa rats [5] = experiment: Intraperitoneal injection of insulin with ISF402 in female Zucker fa/fa rats; format: in vivo, rat; conditions: IP, 2 U/kg bovine insulin
Procedure: Female Zucker fa/fa rats were purchased from Monash Animal Services (Monash University, Clayton, Australia). Rats were housed in the Biochemistry and Molecular Biology Animal House (Monash University, Victoria, Australia) and allowed to acclimatize for 7 days in an environmentally controlled room at 22° C. Rats were fed normal chow and water ad libitum. All experiments were performed according to Monash University Animal Care and Ethics Committee guidelines and approved by the Monash University Animal ethics committee.
Rats of 16-18 weeks of age were fasted overnight with free access to water then anaesthetised with pentobarbitone (Nembutal, Phone Merieux, QLD, Australia) administered intraperitoneally (IP) at 35 mg/kg body weight. Blood glucose was monitored using Medisense glucometers (Abbott Laboratories, Abbott Park, Ill.) for one hour prior to administration of test substances. ISF402 was administered at 3 mg/kg by IP with 2 U/kg of bovine insulin (n=6) and controls were injected IP with insulin alone (n=8). Two experiments were performed where ISF402 was given orally. In the first experiment, controls were given saline orally by gavage (n=5) and the test group were given ISF402 orally at 15 mg/kg (n=5). After 15 minutes, insulin (2 U/kg) was injected IP. […] For both experiments, after administration of peptide blood was collected from the tail vein and glucose measured immediately. […]

[6] = iv, ISF402 4.5 mg/kg without insulin
[7] = oral ISF402 followed by IP insulin injection

T1 sequence (P01317 25-54 limits assumed): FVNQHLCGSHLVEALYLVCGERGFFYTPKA
T1 sequence (P01317 85-105 limits assumed): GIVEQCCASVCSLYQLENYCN

For CC(C)[C@H](N)C(=O)N[C@@H](Cc1c[nH]cn1)C(=O)N[C@H](C(=O)N[C@@H](CC(=O)O)C(N)=O)[C@@H](C)O [ISF402, Val-His-Thr-Asp-NH2] (H-VHTD-NH2), the “effect on the size of the insulin multimer” value (insulin multimer) was “reduces the size of the insulin multimer”, the “elution volume of insulin when mixed with ISF402” value (insulin multimer; insulin without pre-mixing eluted at 14-15 mL) was 16 to 17 mL and the “Change in Serum Triglyceride levels compared to the 0 time point” value (shortened to “Change in Serum Triglyceride levels”) (female Zucker fa/fa rats [1]; Time 0 minutes) was 0 mg/dL. For the same compound, the “Change in Serum Triglyceride levels” value (female Zucker fa/fa rats [1]; Time 10 minutes) was “+11.3 ± 5.4 mg/dl”, the “Change in Serum Triglyceride levels” value (female Zucker fa/fa rats [1]; Time 45 minutes) was −16 ± 7.2^a mg/dl and the “Change in Serum Triglyceride levels” value (female Zucker fa/fa rats [1]; Time 60 minutes) was “+44.9 ± 42.7 mg/dl”. The “maximum reduction in blood glucose” value (female Zucker fa/fa rats [1]; iv, ISF402 4.5 mg/kg without exogenous insulin) was 1.02 ± 0.27 mmol/L, the circulating insulin (female Zucker fa/fa rats [1]; [6]) was “no observed increase in circulating insulin” and the “serum C-peptide concentrations” value (female Zucker fa/fa rats [1]; [6]) was “reduced”. The “optimum ISF402 dose” value (female Zucker fa/fa rats [1]; iv, co-injected with insulin 1 U/kg) was 1.5 mg/kg, the “optimal intravenous dose of ISF402” value (female Zucker fa/fa rats [1]; iv, without exogenous insulin) was 4.5 mg/kg and the “glucose lowering response across the range of ISF402 doses” value (female Zucker fa/fa rats [1]; iv, 0.5-4.5 mg/kg with insulin, 3-10 mg/kg alone, AUC over 60 minutes (FIG. 2A)) was “dose dependent and bell shaped”. For the same compound, the “magnitude of the maximal reduction in blood glucose compared to controls” value (female Zucker fa/fa rats [1]; iv, ISF402 4.5 mg/kg vs saline, ISF402 1.5 mg/kg with insulin vs insulin alone) was 0.95 mmol/L, the “blood glucose in IPITT compared to control” value (female Zucker fa/fa rats [2]; ISF402 15 mg/kg oral, insulin 2 U/kg IP 15 minutes later) was “did not reach statistical significance” and the “blood glucose in IPITT compared to the insulin-injected control group” value (female Zucker fa/fa rats [2]; ISF402 30 mg/kg oral to the same rats three days after 15 mg/kg) was “significant reduction in blood glucose”. For the same compound, the “time of greatest decrease in blood glucose after administration” value (female Zucker fa/fa rats [2]; oral 30 mg/kg ISF402, IPITT) was 2 h, the C-peptide concentrations (female Zucker fa/fa rats [2]; [7]) was “did not change” and the circulating insulin concentrations (female Zucker fa/fa rats [2]; [7]) was “did not change”. For the same compound, the “blood glucose in IPITT compared to control” value (female Zucker fa/fa rats [2]; single dose of 30 mg/kg ISF402 oral by gavage) was “significant decrease in blood glucose”, the solubility at 24 h ([3]; 37° C., pH 6, read-out: minimum solubility) was 179 mg/mL (≈ 381 mM) and the solubility at 24 h ([3]; both at room temperature and 37° C., below pH 4.6 and above pH 6.9, read-out: solubility) was 300 to 450 mg/mL (≈ 639 to 958 mM). The solubility at 24 h ([3]; room temperature, pH 6.3, read-out: lowest solubility) was 165 mg/mL (≈ 351 mM), the “pH of minimum solubility” value ([3]; both temperatures) was 5.7-6.3 and the “response in C2C12 cells (sub-maximal, extracellular acidification)” value ([4]; 0.1 μM ISF402) was ~20%. The “cellular response to insulin (extracellular acidification rate, ECAR)” value ([4]; in the presence of 0.1 μM ISF402, increasing insulin concentrations) was “increased”.
In the case of “Insulin: Insulin (Bovine pancreas) containing 0.6% zinc, purchased from Sigma”, the “blood glucose response to insulin alone” value (male Zucker fa/fa rats) is reported as “no decrease at all”, the “blood glucose after insulin alone” value (female Zucker fa/fa rats [5]) is reported as “only a small reduction in blood glucose” and the “Change in Serum Triglyceride levels” value (female Zucker fa/fa rats [1]; Time 0 minutes) is reported as 0 mg/dL. The “Change in Serum Triglyceride levels” value (female Zucker fa/fa rats [1]; Time 10 minutes) was “+39.6 ± 15.1 mg/dl”, the “Change in Serum Triglyceride levels” value (female Zucker fa/fa rats [1]; Time 45 minutes) was “+21.1 ± 23.9 mg/dl” and the “Change in Serum Triglyceride levels” value (female Zucker fa/fa rats [1]; Time 60 minutes) was “+33.3 ± 19.8 mg/dl”. For the same compound, the “blood glucose response to insulin alone” value (female Zucker fa/fa rats [1]; female rats, 1 U/kg of bovine insulin iv) was “small decrease in blood glucose” and the “maximum reduction in blood glucose” value (female Zucker fa/fa rats [1]; iv, insulin 1 U/kg + ISF402 1.5 mg/kg, or insulin alone at the same time point) was 0.68 ± 0.22 mmol/L.
